Reference: patent US8877452B2, “Nitrite-reductase (NIRB) as potential anti-tubercular target and a method to detect the severity of tuberculosis disease” (priority 2013, dated 2014)
Where two headings read alike, the source gives them in different places.

How the values were obtained:
[1] = system: Mycobacterium tuberculosis in THP-1 macrophage; assay type: cell-based
THP-1 macrophages = experiment: Cytotoxic effect on THP-1 macrophages, DAPI fluorescence microscopy; assay type: cell-based, Human; details: 100 μM; 10 days of treatment; compared with untreated control
Procedure: The THP1 macrophages were treated with 100 μM of p-HMB (Inhibitor) and incubated for 10 days and then stained with DAPI dye before taking pictures under a fluorescent microscope. The control cells were treated with the vehicle only under identical conditions.
THP-1 macrophage cells were grown on cover slip in 8 well microplates and washed twice with chilled methanol followed by staining with 4′,6-diamidino-2-phenylindole (DAPI) at final concentration of 300 nM. Macrophage cells were kept for 15 min at room temperature under dark condition. After incubation, cells were washed three times with distilled water and analyzed under the fluorescence microscope (Leitz Wetzlar model, Germany) at 350 nm excitation and 450 nm emission wavelengths (400×) using ‘A’ filter.
To investigate the host THP-1 macrophage cells condition due to its exposure to p-HMB inhibitor before considering its effective and specific inhibition of bacilli in macrophage infection models, fluorescence microscopic picture of THP-1 cells treated with p-HMB (100 μM) was compared with the untreated control after staining with DAPI (4′,6-diamidino-2-phenylindole). Fluorescence images were taken after 10th day of inhibitor treatment.

[2] = system: Mycobacterium tuberculosis

## [N-]=[N+]=[N-] [Azide]
[1]
  decrease in intracellular viable bacilli count compared to control (without inhibitor): ~1.5 log difference

## CS(=N)(=O)CC[C@H](N)C(=O)O (stereo partly drawn) [L-MSO, L-methionine sulfoximine]
[1]
  decrease in intracellular viable bacilli count compared to control (without inhibitor): ~2.5 log difference

## O=C(O)c1cc[c]([Hg][OH])cc1 [p-HMB, para-hydroxy mercuric benzoate]
[1]; […], cell count on 10th day PI, THP-1 macrophages
  decrease in intracellular viable bacilli count compared to control (without inhibitor): ~2 log difference
[1]; in-vitro and ex-vivo conditions (summary statement)
  reduction of bacilli count: ~2 log cfu
THP-1 macrophages
  cytotoxic effect on macrophage (nuclear integrity, DAPI staining): without exhibiting any cytotoxic effects
[2]
  cell count reduction compared to bacilli grown under ammonia: ~2.5 log difference
